Legend:
[1] = tested on: GLXMAW (Soybean, Williams); experiment: Preemergence herbicidal evaluation; assay type: in vivo, Glycine max, (L.) Merr. cv Williams; conditions: rated 4-5 weeks after treatment
Summary of the method: (§1)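 Greenhouse preemergence test: seed-soil mix sown on ~1 inch soil; aqueous acetone spray at equivalent of ~0.0156–0.500 kg/ha; greenhouse-held and watered; scored 0–9 visually at 4–5 weeks.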

[2] = tested on: TRZAWR (Wheat, Winter, cv Riband); experiment: Postemergence herbicidal evaluation; assay type: in vivo, Triticum aestivum
Summary of the method: (§2)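 ~2-wk seedlings; postemergence spray, 40 psi; vehicle 1:1 acetone:water + 0.5% Tween 20; rate ≈0.0156–0.500 kg/ha; greenhouse hold; scored 4–5 wk after treatment, 0–9 scale vs control; repeat tests averaged.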

AMBEL (Ragweed, Common) [3] = experiment: Postemergence herbicidal evaluation; assay type: in vivo, Ambrosia artemisifolia
Summary of the method: as §2

ABUTH (Velvetleaf) = experiment: Preemergence herbicidal evaluation; assay type: in vivo, Abutilon theophrasti; conditions: rated 4-5 weeks after treatment
Summary of the method: as §1

[4] = tested on: IPOHE (Morningglory, Ivyleaf); experiment: Preemergence herbicidal evaluation; assay type: in vivo, Ipomoea hederacea; conditions: rated 4-5 weeks after treatment
Summary of the method: as §1

ECHCG (Barnyardgrass) = experiment: Postemergence herbicidal evaluation; assay type: in vivo, Echinochloa crus-galli
Summary of the method: as §2

[5] = tested on: GLXMAW (Soybean, Williams); experiment: Postemergence herbicidal evaluation; assay type: in vivo, Glycine max, (L.) Merr. cv Williams
Summary of the method: as §2

[6] = tested on: CHEAL (Lambsquarters, Common); experiment: Preemergence herbicidal evaluation; assay type: in vivo, Chenopodium album; conditions: rated 4-5 weeks after treatment
Summary of the method: as §1

AMBEL (Ragweed, Common) [7] = experiment: Preemergence herbicidal evaluation; assay type: in vivo, Ambrosia artemisifolia; conditions: rated 4-5 weeks after treatment
Summary of the method: as §1

[8] = tested on: SAGPY (Arrowhead (Pygmaea)); experiment: Preemergence weed control under flooded paddy conditions; assay type: in vivo, Sagittaria pygmaea; conditions: rated 3-4 weeks after treatment
Summary of the method: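 Silt loam, seeds in top 0.5 cm; flood held 1.5-3 cm; test cpd as acetone/water 50/50 into flood water, ~0.0313-0.500 kg/ha a.i.; greenhouse 3-4 wk; visual 0-9 score vs control.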

ORYSAT (Rice, Tebonnet) = experiment: Preemergence herbicidal evaluation; assay type: in vivo, Oryza sativa, (L.) Tebonnet; conditions: rated 4-5 weeks after treatment
Summary of the method: as §1

CASOB (Sicklepod) [9] = experiment: Preemergence herbicidal evaluation; assay type: in vivo, Cassia obtusifolia; conditions: rated 4-5 weeks after treatment
Summary of the method: as §1

[10] = tested on: CHEAL (Lambsquarters, Common); experiment: Postemergence herbicidal evaluation; assay type: in vivo, Chenopodium album
Summary of the method: as §2

CASOB (Sicklepod) [11] = experiment: Postemergence herbicidal evaluation; assay type: in vivo, Cassia obtusifolia
Summary of the method: as §2

[12] = tested on: IPOHE (Morningglory, Ivyleaf); experiment: Postemergence herbicidal evaluation; assay type: in vivo, Ipomoea hederacea
Summary of the method: as §2

CCOC(=O)CN1CC(=O)N(CC(=O)OCC)C1=Nc1cc(-n2c(=O)cc(C(F)(F)F)n(C)c2=O)c(F)cc1Cl [Compound 34, 2-{{2-Chloro-5-[3,6-dihydro-3-methyl-2,6-dioxo-4-(trifluoromethyl)-1(2H)-pyrimidinyl]-4-fluoro-phenyl}imino}-4-oxo-1,3-imidazolidinediacetic acid, diethyl ester]
7.0: Postemergence herbicidal rating GLXMAW ([5]; Rate 0.0158 kg/ha) | Postemergence herbicidal rating GLXMAW ([5]; Rate 0.0315 kg/ha) | Postemergence herbicidal rating GLXMAW ([5]; Rate 0.0630 kg/ha) | Preemergence herbicidal rating AMBEL (AMBEL (Ragweed, Common) [7]; rate 0.2500 kg/ha) | Postemergence herbicidal rating CHEAL ([10]; Rate 0.0158 kg/ha)
2.0: Preemergence herbicidal rating ORYSAT (ORYSAT (Rice, Tebonnet); rate 0.1250 kg/ha)
0.0: Preemergence herbicidal rating GLXMAW ([1]; rate 0.0313 kg/ha) | Preemergence herbicidal rating GLXMAW ([1]; rate 0.0625 kg/ha) | Preemergence herbicidal rating GLXMAW ([1]; rate 0.1250 kg/ha) | Preemergence herbicidal rating GLXMAW ([1]; rate 0.2500 kg/ha) | Preemergence herbicidal rating IPOHE ([4]; rate 0.0313 kg/ha) | Postemergence herbicidal rating ECHCG (ECHCG (Barnyardgrass); Rate 0.0158 kg/ha) | Postemergence herbicidal rating ECHCG (ECHCG (Barnyardgrass); Rate 0.0315 kg/ha) | Preemergence herbicidal rating AMBEL (AMBEL (Ragweed, Common) [7]; rate 0.0313 kg/ha) | Herbicidal rating SAGPY ([8]; 0.0313 kg/ha) | Herbicidal rating SAGPY ([8]; 0.0625 kg/ha) | Herbicidal rating SAGPY ([8]; 0.1250 kg/ha) | Herbicidal rating SAGPY ([8]; 0.2500 kg/ha) | Preemergence herbicidal rating ORYSAT (ORYSAT (Rice, Tebonnet); rate 0.0313 kg/ha) | Preemergence herbicidal rating ORYSAT (ORYSAT (Rice, Tebonnet); rate 0.0625 kg/ha) | Preemergence herbicidal rating CASOB (CASOB (Sicklepod) [9]; rate 0.0313 kg/ha) | Preemergence herbicidal rating CASOB (CASOB (Sicklepod) [9]; rate 0.0625 kg/ha) | Preemergence herbicidal rating CASOB (CASOB (Sicklepod) [9]; rate 0.1250 kg/ha) | Preemergence herbicidal rating CASOB (CASOB (Sicklepod) [9]; rate 0.2500 kg/ha) | Postemergence herbicidal rating CASOB (CASOB (Sicklepod) [11]; Rate 0.0158 kg/ha) | Postemergence herbicidal rating CASOB (CASOB (Sicklepod) [11]; Rate 0.0315 kg/ha) | Postemergence herbicidal rating CASOB (CASOB (Sicklepod) [11]; Rate 0.0630 kg/ha)
1.0: Postemergence herbicidal rating ECHCG (ECHCG (Barnyardgrass); Rate 0.0630 kg/ha)
3.0: Preemergence herbicidal rating IPOHE ([4]; rate 0.0625 kg/ha) | Preemergence herbicidal rating IPOHE ([4]; rate 0.1250 kg/ha)
5.0: Postemergence herbicidal rating TRZAWR ([2]; Rate 0.0630 kg/ha) | Preemergence herbicidal rating ORYSAT (ORYSAT (Rice, Tebonnet); rate 0.2500 kg/ha)
4.0: Postemergence herbicidal rating TRZAWR ([2]; Rate 0.0158 kg/ha) | Postemergence herbicidal rating TRZAWR ([2]; Rate 0.0315 kg/ha) | Preemergence herbicidal rating AMBEL (AMBEL (Ragweed, Common) [7]; rate 0.0625 kg/ha) | Preemergence herbicidal rating AMBEL (AMBEL (Ragweed, Common) [7]; rate 0.1250 kg/ha)
9.0: Postemergence herbicidal rating AMBEL (AMBEL (Ragweed, Common) [3]; Rate 0.0158 kg/ha) | Postemergence herbicidal rating AMBEL (AMBEL (Ragweed, Common) [3]; Rate 0.0315 kg/ha) | Postemergence herbicidal rating AMBEL (AMBEL (Ragweed, Common) [3]; Rate 0.0630 kg/ha) | Preemergence herbicidal rating ABUTH (ABUTH (Velvetleaf); rate 0.0313 kg/ha) | Preemergence herbicidal rating ABUTH (ABUTH (Velvetleaf); rate 0.0625 kg/ha) | Preemergence herbicidal rating ABUTH (ABUTH (Velvetleaf); rate 0.1250 kg/ha) | Preemergence herbicidal rating ABUTH (ABUTH (Velvetleaf); rate 0.2500 kg/ha) | Preemergence herbicidal rating IPOHE ([4]; rate 0.2500 kg/ha) | Preemergence herbicidal rating CHEAL ([6]; rate 0.0313 kg/ha) | Preemergence herbicidal rating CHEAL ([6]; rate 0.0625 kg/ha) | Preemergence herbicidal rating CHEAL ([6]; rate 0.1250 kg/ha) | Preemergence herbicidal rating CHEAL ([6]; rate 0.2500 kg/ha) | Postemergence herbicidal rating CHEAL ([10]; Rate 0.0315 kg/ha) | Postemergence herbicidal rating CHEAL ([10]; Rate 0.0630 kg/ha) | Postemergence herbicidal rating IPOHE ([12]; Rate 0.0158 kg/ha) | Postemergence herbicidal rating IPOHE ([12]; Rate 0.0315 kg/ha) | Postemergence herbicidal rating IPOHE ([12]; Rate 0.0630 kg/ha)

CCOC(=O)CN1C(=O)C(Cc2ccccc2OC)SC1=Nc1cc(-n2c(=O)cc(C(F)(F)F)n(C)c2=O)c(F)cc1Cl (centres unmarked) [Compound 37, Ethyl 2-{{2-chloro-5-[3,6-dihydro-3-methyl-2,6-dioxo-4-(trifluoromethyl)-1(2H)-pyrimidinyl]-4-fluorophenyl}imino}-5-(o-methoxybenzyl)-4-oxo-3-thiazolidineacetate]
0.0: Preemergence herbicidal rating GLXMAW ([1]; rate 0.1250 kg/ha) | Preemergence herbicidal rating GLXMAW ([1]; rate 0.2500 kg/ha) | Preemergence herbicidal rating ABUTH (ABUTH (Velvetleaf); rate 0.1250 kg/ha) | Preemergence herbicidal rating IPOHE ([4]; rate 0.1250 kg/ha) | Preemergence herbicidal rating IPOHE ([4]; rate 0.2500 kg/ha) | Postemergence herbicidal rating ECHCG (ECHCG (Barnyardgrass); Rate 0.0158 kg/ha) | Postemergence herbicidal rating ECHCG (ECHCG (Barnyardgrass); Rate 0.0315 kg/ha) | Postemergence herbicidal rating ECHCG (ECHCG (Barnyardgrass); Rate 0.0630 kg/ha) | Preemergence herbicidal rating AMBEL (AMBEL (Ragweed, Common) [7]; rate 0.1250 kg/ha) | Preemergence herbicidal rating AMBEL (AMBEL (Ragweed, Common) [7]; rate 0.2500 kg/ha) | Herbicidal rating SAGPY ([8]; 0.0313 kg/ha) | Herbicidal rating SAGPY ([8]; 0.0625 kg/ha) | Herbicidal rating SAGPY ([8]; 0.1250 kg/ha) | Preemergence herbicidal rating ORYSAT (ORYSAT (Rice, Tebonnet); rate 0.1250 kg/ha) | Preemergence herbicidal rating ORYSAT (ORYSAT (Rice, Tebonnet); rate 0.2500 kg/ha) | Preemergence herbicidal rating CASOB (CASOB (Sicklepod) [9]; rate 0.1250 kg/ha) | Preemergence herbicidal rating CASOB (CASOB (Sicklepod) [9]; rate 0.2500 kg/ha) | Postemergence herbicidal rating CASOB (CASOB (Sicklepod) [11]; Rate 0.0158 kg/ha) | Postemergence herbicidal rating CASOB (CASOB (Sicklepod) [11]; Rate 0.0315 kg/ha) | Postemergence herbicidal rating CASOB (CASOB (Sicklepod) [11]; Rate 0.0630 kg/ha)
4.5: Postemergence herbicidal rating GLXMAW ([5]; Rate 0.0158 kg/ha)
2.0: Postemergence herbicidal rating TRZAWR ([2]; Rate 0.0158 kg/ha) | Postemergence herbicidal rating TRZAWR ([2]; Rate 0.0315 kg/ha) | Postemergence herbicidal rating TRZAWR ([2]; Rate 0.0630 kg/ha)
9.0: Postemergence herbicidal rating AMBEL (AMBEL (Ragweed, Common) [3]; Rate 0.0315 kg/ha) | Postemergence herbicidal rating AMBEL (AMBEL (Ragweed, Common) [3]; Rate 0.0630 kg/ha) | Preemergence herbicidal rating CHEAL ([6]; rate 0.1250 kg/ha) | Preemergence herbicidal rating CHEAL ([6]; rate 0.2500 kg/ha) | Postemergence herbicidal rating IPOHE ([12]; Rate 0.0158 kg/ha) | Postemergence herbicidal rating IPOHE ([12]; Rate 0.0315 kg/ha) | Postemergence herbicidal rating IPOHE ([12]; Rate 0.0630 kg/ha)
3.0: Postemergence herbicidal rating AMBEL (AMBEL (Ragweed, Common) [3]; Rate 0.0158 kg/ha) | Preemergence herbicidal rating ABUTH (ABUTH (Velvetleaf); rate 0.2500 kg/ha) | Herbicidal rating SAGPY ([8]; 0.2500 kg/ha) | Postemergence herbicidal rating CHEAL ([10]; Rate 0.0158 kg/ha) | Postemergence herbicidal rating CHEAL ([10]; Rate 0.0315 kg/ha) | Postemergence herbicidal rating CHEAL ([10]; Rate 0.0630 kg/ha)
5.0: Postemergence herbicidal rating GLXMAW ([5]; Rate 0.0315 kg/ha) | Postemergence herbicidal rating GLXMAW ([5]; Rate 0.0630 kg/ha)
